{
  "source": "ChEMBL document CHEMBL1156667",
  "about": "“Dynamic nature of the ligustilide complex” (J Nat Prod, 2008)",
  "assay_type_in_all_cases": "physicochemical",
  "key": {"[1]": {"experiment": "Chemical stability in DMSO after 41 days", "conditions": "read-out: Stability"}, "[2]": {"experiment": "Chemical stability in CDCl3 after 46 days by qHNMR experiment", "conditions": "read-out: Stability"}, "[3]": {"experiment": "Chemical stability in heaxane; EtOAc:MeOH:H2O-7 (9:1:9:1) after 41 days by qHNMR experiment", "conditions": "hexane:EtOAc:MeOH:H2O (9:1:9:1) solvent mixture; read-out: Stability"}, "[4]": {"experiment": "Chemical stability in MeOH after 41 days", "conditions": "read-out: Stability"}, "[5]": {"experiment": "Chemical stability in CDCl3 after 46 days by GC-MS analysis", "conditions": "read-out: Stability"}},
  "data": [
    {"smiles": "CCC/C=C1\\OC(=O)C2=C1CCC=C2", "note": "[LIGUSTILIDE]", "values": [
      {"measurement": "remaining at 984 h", "setting": "[1]", "value": 5.2, "unit": "%"},
      {"measurement": "remaining at 1104 h", "setting": "[2]", "value": 78.1, "unit": "%"},
      {"measurement": "remaining at 984 h", "setting": "[3]", "value": 0.8, "unit": "%"},
      {"measurement": "remaining at 984 h", "setting": "[4]", "value": 4.4, "unit": "%"},
      {"measurement": "remaining at 1104 h", "setting": "[5]", "value": 91.6, "unit": "%"}
    ]}
  ]
}
